Values of other authors as cited in patent US8080647B2 (priority 2006, dated 2011).

Tests used:
[1] = biological target: lac repressor (Escherichia coli, UniProt P03023)
[2] = system: cells
[3] = system: lac operator-repressor system; details: Ulmasov et al. 1997

Molecule	reduction of the affinity of lac repressor for the operator [1] [fold]	toxicity of the inducing agent [2]	repression reported [3] [fold]
CC(C)S[C@@H]1O[C@H](CO)[C@H](O)[C@H](O)[C@H]1O [IPTG, isopropyl-B-D-thiogalactopyranoside]	300	cytotoxic	
lactose repressor: repressor protein of the E. coli lactose operon (protein, UniProt P03023 1-360, looked up) Lactose operon repressor: MKPVTLYDVAEYAGVSYQTVSRVVNQASHVSAKTREKVEAAMAELNYIPNRVAQQLAGKQSLLIGVATSSLALHAPSQIVAAIKSRADQLGASVVVSMVERSGVEACKAAVHNLLAQRVSGLIINYPLDDQDAIAVEAACTNVPALFLDVSDQTPINSIIFSHEDGTRLGVEHLVALGHQQIALLAGPLSSVSARLRLAGWHKYLTRNQIQPIAEREGDWSAMSGFQQTMQMLNEGIVPTAMLVANDQMALGAMRAITESGLRVGADISVVGYDDTEDSSCYIPPLTTIKQDFRLLGQTSVDRLLQLSQGQAVKGNQLLPVSLVKRKTTLAPNTQTASPRALADSLMQLARQVSRLESGQ			30
